Measured values taken from PubChem BioAssay AID1918933 (Molecular Pharmacology Branch, DTP, NCI, 2023).
Several values for one entry are separate records, joined by “and”; a condition that tells them apart may be missing. Equal entries are not always repeated.

Tested on: 186277-243-T-J2-PDC complex spheroid viability
Assay: Anticancer human tumor 186277-243-T-J2-PDC patient-derived colon adenocarcinoma cell line growth inhibition
Settings: for viability, T/C: stronger effect = lower value
Outline: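 Complex spheroids of tumor cells with HUVEC and human MSCs, exposed to iadademstat combined with other agents. Each agent tested in half-log steps from near clinical Cmax (else 10 microM top), DMSO ≤0.25%.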

[1] = curve of first compound, second compound 0.1 µM
[2] = curve of first compound, second compound 0.316 µM
[3] = curve of first compound, second compound 1 µM
[4] = curve of first compound, second compound 3.16 µM
[5] = curve of first compound, second compound 10 µM
[6] = second compound 0.1 µM, first compound 0.000949 µM
[7] = second compound 0.1 µM, first compound 0.003 µM
[8] = second compound 0.1 µM, first compound 0.00949 µM
[9] = second compound 0.1 µM, first compound 0.03 µM
[10] = second compound 0.1 µM, first compound 0.0949 µM
[11] = second compound 0.1 µM, first compound 0.3 µM
[12] = second compound 0.316 µM, first compound 0.000949 µM
[13] = second compound 0.316 µM, first compound 0.003 µM
[14] = second compound 0.316 µM, first compound 0.00949 µM
[15] = second compound 0.316 µM, first compound 0.03 µM
[16] = second compound 0.316 µM, first compound 0.0949 µM
[17] = second compound 0.316 µM, first compound 0.3 µM
[18] = second compound 1 µM, first compound 0.000949 µM
[19] = second compound 1 µM, first compound 0.003 µM
[20] = second compound 1 µM, first compound 0.00949 µM
[21] = second compound 1 µM, first compound 0.03 µM
[22] = second compound 1 µM, first compound 0.0949 µM
[23] = second compound 1 µM, first compound 0.3 µM
[24] = second compound 3.16 µM, first compound 0.000949 µM
[25] = second compound 3.16 µM, first compound 0.003 µM
[26] = second compound 3.16 µM, first compound 0.00949 µM
[27] = second compound 3.16 µM, first compound 0.03 µM
[28] = second compound 3.16 µM, first compound 0.0949 µM
[29] = second compound 3.16 µM, first compound 0.3 µM
[30] = second compound 10 µM, first compound 0.000949 µM
[31] = second compound 10 µM, first compound 0.003 µM
[32] = second compound 10 µM, first compound 0.00949 µM
[33] = second compound 10 µM, first compound 0.03 µM
[34] = second compound 10 µM, first compound 0.0949 µM
[35] = second compound 10 µM, first compound 0.3 µM
[36] = second compound 0.1 µM, first compound 0.0316 µM
[37] = second compound 0.1 µM, first compound 0.1 µM
[38] = second compound 0.1 µM, first compound 0.316 µM
[39] = second compound 0.1 µM, first compound 1 µM
[40] = second compound 0.316 µM, first compound 0.0316 µM
[41] = second compound 0.316 µM, first compound 0.1 µM
[42] = second compound 0.316 µM, first compound 0.316 µM
[43] = second compound 0.316 µM, first compound 1 µM
[44] = second compound 1 µM, first compound 0.0316 µM
[45] = second compound 1 µM, first compound 0.1 µM
[46] = second compound 1 µM, first compound 0.316 µM
[47] = second compound 1 µM, first compound 1 µM
[48] = second compound 3.16 µM, first compound 0.0316 µM
[49] = second compound 3.16 µM, first compound 0.1 µM
[50] = second compound 3.16 µM, first compound 0.316 µM
[51] = second compound 3.16 µM, first compound 1 µM
[52] = second compound 10 µM, first compound 0.0316 µM
[53] = second compound 10 µM, first compound 0.1 µM
[54] = second compound 10 µM, first compound 0.316 µM
[55] = second compound 10 µM, first compound 1 µM
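Also: 7 day exposure to compounds.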
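For viability, T/C in this document: 100% = DMSO vehicle control viability.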

CCc1c2c(nc3ccc(O)cc13)-c1cc3c(c(=O)n1C2)COC(=O)[C@]3(O)CC + NC1CC1c1ccc(-c2cccc(O)c2)cc1
IC50 [1]: < 0.949 nM | IC50 [2]: < 0.949 nM | IC50 [3]: < 0.949 nM | IC50 [4]: < 0.949 nM | IC50 [5]: < 0.949 nM | viability, T/C [6]: 41.8% | viability, T/C [7]: 30.3% | viability, T/C [8]: 21.5% | viability, T/C [9]: 3.91% | viability, T/C [10]: 1.18% | viability, T/C [11]: 0.24% | viability, T/C [12]: 43.1% | viability, T/C [13]: 29.9% | viability, T/C [14]: 22.4% | viability, T/C [15]: 3.45% | viability, T/C [16]: 0.15% | viability, T/C [17]: 0.17% | viability, T/C [18]: 42.2% | viability, T/C [19]: 28.3% | viability, T/C [20]: 24.3% | viability, T/C [21]: 3.43% | viability, T/C [22]: 0.22% | viability, T/C [23]: 0.17% | viability, T/C [24]: 42.7% | viability, T/C [25]: 29% | viability, T/C [26]: 24% | viability, T/C [27]: 3.34% | viability, T/C [28]: 0.22% | viability, T/C [29]: 0.16% | viability, T/C [30]: 35.4% | viability, T/C [31]: 23.4% | viability, T/C [32]: 17.3% | viability, T/C [33]: 1.73% | viability, T/C [34]: 0.19% | viability, T/C [35]: 0.23%

CC1COCCN1c1cc(C2(S(C)(=N)=O)CC2)nc(-c2ccnc3[nH]ccc23)n1 (stereo unspecified) + NC1CCC(NC2CC2c2ccccc2)CC1
IC50 [1]: 438 nM | IC50 [2]: 457 nM | IC50 [3]: 440 nM | IC50 [4]: 517 nM | IC50 [5]: 533 nM | viability, T/C [36]: 123% | viability, T/C [37]: 108% | viability, T/C [38]: 63% | viability, T/C [39]: 17.9% | viability, T/C (second compound 0.1 µM, first compound 3.16 µM): 10.8% | viability, T/C (second compound 0.1 µM, first compound 10 µM): 6.11% | viability, T/C [40]: 117% | viability, T/C [41]: 115% | viability, T/C [42]: 65.1% | viability, T/C [43]: 17.7% | viability, T/C (second compound 0.316 µM, first compound 3.16 µM): 11% | viability, T/C (second compound 0.316 µM, first compound 10 µM): 7.27% | viability, T/C [44]: 118% | viability, T/C [45]: 112% | viability, T/C [46]: 62.8% | viability, T/C [47]: 17.5% | viability, T/C (second compound 1 µM, first compound 3.16 µM): 11.1% | viability, T/C (second compound 1 µM, first compound 10 µM): 6.95% | viability, T/C [48]: 122% | viability, T/C [49]: 123% | viability, T/C [50]: 71.3% | viability, T/C [51]: 21.8% | viability, T/C (second compound 3.16 µM, first compound 3.16 µM): 11.5% | viability, T/C (second compound 3.16 µM, first compound 10 µM): 7.92% | viability, T/C [52]: 115% | viability, T/C [53]: 123% | viability, T/C [54]: 71% | viability, T/C [55]: 26.1% | viability, T/C (second compound 10 µM, first compound 3.16 µM): 16.7% | viability, T/C (second compound 10 µM, first compound 10 µM): 9.23%

COc1ccc([C@@H](O)c2cc(-c3ncnc4cc(N5CCOCC5)ccc34)c(F)cc2Cl)nn1
viability, T/C (compound 0.0316 µM): 103% and 101% | viability, T/C (compound 0.1 µM): 104% and 100% | viability, T/C (compound 0.316 µM): 87.8% and 101% | viability, T/C (compound 1 µM): 84.4% and 100% | viability, T/C (compound 3.16 µM): 46.7% and 64.8% | viability, T/C (compound 10 µM): 3.51% and 12.2% | IC50 (curve of compound): 2970 nM and 4370 nM

Nc1ncn(C2CC(O)C(CO)S2)c(=O)n1 (stereo unspecified) + NC1CCC(NC2CC2c2ccccc2)CC1
IC50 [1]: 77.6 nM | IC50 [2]: 74 nM | IC50 [3]: 72.4 nM | IC50 [4]: 75.3 nM | IC50 [5]: 89 nM | viability, T/C [6]: 125% | viability, T/C [7]: 126% | viability, T/C [8]: 132% | viability, T/C [9]: 107% | viability, T/C [10]: 38.1% | viability, T/C [11]: 9.48% | viability, T/C [12]: 108% | viability, T/C [13]: 129% | viability, T/C [14]: 123% | viability, T/C [15]: 105% | viability, T/C [16]: 34.9% | viability, T/C [17]: 10.6% | viability, T/C [18]: 115% | viability, T/C [19]: 125% | viability, T/C [20]: 146% | viability, T/C [21]: 90% | viability, T/C [22]: 40.3% | viability, T/C [23]: 11.5% | viability, T/C [24]: 119% | viability, T/C [25]: 132% | viability, T/C [26]: 140% | viability, T/C [27]: 109% | viability, T/C [28]: 35.7% | viability, T/C [29]: 12.7% | viability, T/C [30]: 118% | viability, T/C [31]: 125% | viability, T/C [32]: 144% | viability, T/C [33]: 112% | viability, T/C [34]: 46.9% | viability, T/C [35]: 13.3%

O=C(C=Cc1cccc(S(=O)(=O)Nc2ccccc2)c1)NO + NC1CC1c1ccc(-c2cccc(O)c2)cc1
IC50 [1]: 240 nM | IC50 [2]: 237 nM | IC50 [3]: 260 nM | IC50 [4]: 268 nM | IC50 [5]: 238 nM | viability, T/C [8]: 104% | viability, T/C [9]: 103% | viability, T/C [10]: 94% | viability, T/C [11]: 23.5% | viability, T/C (second compound 0.1 µM, first compound 0.949 µM): 3.89% | viability, T/C (second compound 0.1 µM, first compound 3 µM): 91.1% | viability, T/C [14]: 106% | viability, T/C [15]: 113% | viability, T/C [16]: 90.8% | viability, T/C [17]: 25.9% | viability, T/C (second compound 0.316 µM, first compound 0.949 µM): 3.14% | viability, T/C (second compound 0.316 µM, first compound 3 µM): 89.5% | viability, T/C [20]: 116% | viability, T/C [21]: 101% | viability, T/C [22]: 109% | viability, T/C [23]: 23.3% | viability, T/C (second compound 1 µM, first compound 0.949 µM): 3.06% | viability, T/C (second compound 1 µM, first compound 3 µM): 98.7% | viability, T/C [26]: 118% | viability, T/C [27]: 106% | viability, T/C [28]: 111% | viability, T/C [29]: 26% | viability, T/C (second compound 3.16 µM, first compound 0.949 µM): 3.1% | viability, T/C (second compound 3.16 µM, first compound 3 µM): 101% | viability, T/C [32]: 99.3% | viability, T/C [33]: 96.8% | viability, T/C [34]: 87.5% | viability, T/C [35]: 21.8% | viability, T/C (second compound 10 µM, first compound 0.949 µM): 1.11% | viability, T/C (second compound 10 µM, first compound 3 µM): 99%

COc1cc(Nc2ncc3c(n2)-c2ccc(Cl)cc2C(c2c(F)cccc2OC)=NC3)ccc1C(=O)O
viability, T/C (compound 0.00316 µM): 101% and 116% | viability, T/C (compound 0.01 µM): 57.4% and 106% | viability, T/C (compound 0.0316 µM): 30.4% and 99.2% | viability, T/C (compound 0.1 µM): 8.56% and 98.8%

O=C(C=Cn1cnc(-c2cc(C(F)(F)F)cc(C(F)(F)F)c2)n1)NNc1cnccn1 + NC1CCC(NC2CC2c2ccccc2)CC1
IC50 [1]: 16.6 nM | IC50 [2]: 18.6 nM | IC50 [3]: 17 nM | IC50 [4]: 18.2 nM | IC50 [5]: 16.8 nM | viability, T/C (second compound 0.1 µM, first compound 0.00316 µM): 98.7% | viability, T/C (second compound 0.1 µM, first compound 0.01 µM): 73.7% | viability, T/C [36]: 19.7% | viability, T/C [37]: 5.58% | viability, T/C [38]: 3.09% | viability, T/C [39]: 0.76% | viability, T/C (second compound 0.316 µM, first compound 0.00316 µM): 98.9% | viability, T/C (second compound 0.316 µM, first compound 0.01 µM): 83.6% | viability, T/C [40]: 20.9% | viability, T/C [41]: 10.7% | viability, T/C [42]: 3.03% | viability, T/C [43]: 2.56% | viability, T/C (second compound 1 µM, first compound 0.00316 µM): 91.4% | viability, T/C (second compound 1 µM, first compound 0.01 µM): 76.3% | viability, T/C [44]: 19.3% | viability, T/C [45]: 7.63% | viability, T/C [46]: 3.96% | viability, T/C [47]: 0.59% | viability, T/C (second compound 3.16 µM, first compound 0.00316 µM): 121% | viability, T/C (second compound 3.16 µM, first compound 0.01 µM): 83.3% | viability, T/C [48]: 19.2% | viability, T/C [49]: 5.56% | viability, T/C [50]: 5.32% | viability, T/C [51]: 0.63% | viability, T/C (second compound 10 µM, first compound 0.00316 µM): 131% | viability, T/C (second compound 10 µM, first compound 0.01 µM): 76.8% | viability, T/C [52]: 17.3% | viability, T/C [53]: 4.86% | viability, T/C [54]: 3.33% | viability, T/C [55]: 0.57%
